The test system of the data set is HT-29 cell line. Put plainly: Cell viability assay, impedance-based xCELLigence SP System. Also on record: species or system human. The conditions noted are these: for IC50: Delta CI normalized to control, sigmoidal fit, mean ± SD of three parallel measurements, read-out: IC50 of cytotoxicity; for Viability (control = 100 %): conjugate at 10^-4 M, mean of three parallels ± SD. Here is the method:
The effects of different GnRH conjugates on HT-29 cell growth were measured by the xCELLigence SP System (ACEA Biosciences, San Diego, CA, USA), which allows cell viability to be detected in real-time via impedance readouts. The experimental setup and the procedure were almost identical to the one described in more detail in our previous works. The continuous monitoring of cell viability provides the opportunity to determine the difference in the time-dependent cellular response for the various GnRH conjugates and to select the optimal time points to conduct more specific end-point assays (e.g., apoptosis assays) for further investigating the mechanism of antitumor activity. […] CI is a dimensionless value and is calculated from the impedance of the well with cells and the background impedance of the well without cells.
Briefly, the main steps of the experiment are the following: (i) the background measurement, in which 80 µL complete cell culture medium was loaded to each well of an E-plate in order to establish a constant CI value; (ii) the cell monitoring step, in which 100 µL of cell suspension (10^5 cell/mL) was added to each well followed by an incubation period of 24 h; and (iii) the compound activity monitoring step, in which test-conjugates (final concentration range: 32 nM–100 µM) were added to the cells at the plateau phase and the CI change was recorded for a further 72 h at 10 kHz. Stock solutions (5 × 10^−3 M) were prepared from the test-conjugates in distilled water and then further diluted to 320 nM–1 mM in the complete cell culture medium. The wells treated with an adequate volume of pure cell culture medium represented the control. Triplicate wells were used for each treatment for statistical analysis.
Delta CI values—a difference of CI value at the time point of cell inoculation and CI value at a given time point—were calculated by RTCA 2.0 software (ACEA Biosciences, San Diego, CA, USA) integrated into the xCELLigence SP System to characterize the time-dependent antiproliferative/cytotoxic effect of the different GnRH conjugates. IC50 values were used to compare the effect of the conjugates.

SMILES strings stand for the structures. Like-named read-outs stand apart in the source and are kept apart here. Non-standard residues stand in square brackets, D forms with d. Residues, ends and D or L forms follow the SMILES beside them. *: point of attachment. Daunorubicin(13-NOCH2CO) = COc1cccc2c1C(=O)c1c(O)c3c(c(O)c1C2=O)C[C@@](O)(C(C)=NOCC(=O)*)C[C@@H]3O[C@H]1C[C@H](N)[C@H](O)[C@H](C)O1; pGlu = O=C1CC[C@@H](C(=O)O)N1; Butyryl = CCCC(=O)* A value given as a limit tells only on which side of the number the result lay.

In general, IC50 refers to the concentration that inhibits the measured activity by half. For the molecule `CCCC(=O)NCCCC[C@H](NC(=O)[C@H](Cc1c[nH]c2ccccc12)NC(=O)[C@H](Cc1c[nH]cn1)NC(=O)[C@@H]1CCC(=O)N1)C(=O)N[C@@H](Cc1c[nH]cn1)C(=O)N[C@H](CCCCNC(=O)CON=C(C)[C@]1(O)Cc2c(O)c3c(c(O)c2[C@@H](O[C@H]2C[C@H](N)[C@H](O)[C@H](C)O2)C1)C(=O)c1c(OC)cccc1C3=O)C(=O)N[C@@H](Cc1c[nH]c2ccccc12)C(=O)N[C@@H](Cc1ccc(O)cc1)C(=O)N1CCC[C@H]1C(=O)NCC(N)=O` [II-[^4Lys(Bu),^6D-Lys(Dau)], GnRH-II-[^4Lys(Bu),^6D-Lys(Dau=Aoa)]] ([pGlu]HWK(Butyryl)H[dK](Daunorubicin(13-NOCH2CO))WYPG-NH2), the half-maximal inhibitory concentration (IC50) (24 h incubation) came out at 65.8 ± 3.89 µM, the IC50 (48 h incubation) turned out to be 69.7 ± 4.12 µM and the IC50 (72 h incubation) was found to be 48.1 ± 6.89 µM. Moreover, the “Viability (control = 100 %)” value by setting is: (24 h) 35.64 ± 3.41%; (48 h) 19.40 ± 2.77%; (72 h) 24.31 ± 4.20%.
Take `COc1cccc2c1C(=O)c1c(O)c3c(c(O)c1C2=O)C[C@@](O)(C(C)=NOCC(=O)NCCCC[C@@H](NC(=O)[C@H](Cc1ccc(O)cc1)NC(=O)[C@H](CO)NC(=O)[C@H](Cc1c[nH]c2ccccc12)NC(=O)[C@H](Cc1c[nH]cn1)NC(=O)[C@@H]1CCC(=O)N1)C(=O)N[C@@H](CC(C)C)C(=O)N[C@@H](CCCNC(=N)N)C(=O)N1CCC[C@H]1C(=O)NCC(N)=O)C[C@@H]3O[C@H]1C[C@H](N)[C@H](O)[C@H](C)O1` [I-[^4Ser,^6D-Lys(Dau)], GnRH-I-[^4Ser,^6D-Lys(Dau=Aoa)]]: the IC50 (24 h incubation) was greater than 100 µM, the IC50 (48 h incubation) was found to be 60.2 ± 3.5 µM and the IC50 (72 h incubation) was determined as 21.9 ± 1.54 µM. Also, the “Viability (control = 100 %)” value (48 h) was 43.82 ± 1.18%.
Consider `CCCC(=O)NCCCC[C@H](NC(=O)[C@H](Cc1c[nH]c2ccccc12)NC(=O)[C@H](Cc1c[nH]cn1)NC(=O)[C@@H]1CCC(=O)N1)C(=O)N[C@@H](Cc1ccc(O)cc1)C(=O)N[C@H](CCCCNC(=O)CON=C(C)[C@]1(O)Cc2c(O)c3c(c(O)c2[C@@H](O[C@H]2C[C@H](N)[C@H](O)[C@H](C)O2)C1)C(=O)c1c(OC)cccc1C3=O)C(=O)N[C@@H](CC(C)C)C(=O)N[C@@H](CCCNC(=N)N)C(=O)N1CCC[C@H]1C(=O)NCC(N)=O` [I-[^4Lys(Bu),^6D-Lys(Dau)], GnRH-I-[^4Lys(Bu),^6D-Lys(Dau=Aoa)]] ([pGlu]HWK(Butyryl)Y[dK](Daunorubicin(13-NOCH2CO))LRPG-NH2), for which the IC50 is greater than 100 µM (24 h incubation), 18.7 ± 1.19 µM (48 h incubation) and 16.2 ± 1.75 µM (72 h incubation). Also, the “Viability (control = 100 %)” value was determined as 86.69 ± 4.84% (24 h), 15.50 ± 0.55% (48 h) and 5.31 ± 1.27% (72 h).
On to `COc1cccc2c1C(=O)c1c(O)c3c(c(O)c1C2=O)C[C@@](O)(C(C)=NOCC(=O)NCCCC[C@@H](NC(=O)[C@H](Cc1c[nH]cn1)NC(=O)[C@H](CO)NC(=O)[C@H](Cc1c[nH]c2ccccc12)NC(=O)[C@H](Cc1c[nH]cn1)NC(=O)[C@@H]1CCC(=O)N1)C(=O)N[C@@H](Cc1c[nH]c2ccccc12)C(=O)N[C@@H](Cc1ccc(O)cc1)C(=O)N1CCC[C@H]1C(=O)NCC(N)=O)C[C@@H]3O[C@H]1C[C@H](N)[C@H](O)[C@H](C)O1` [II-[^4Ser,^6D-Lys(Dau)], GnRH-II-[^4Ser,^6D-Lys(Dau=Aoa)]] ([pGlu]HWSH[dK](Daunorubicin(13-NOCH2CO))WYPG-NH2), for which the IC50 is 58.9 ± 10 µM (24 h incubation), 24.2 ± 0.86 µM (48 h incubation) and 19.7 ± 2.51 µM (72 h incubation). The “Viability (control = 100 %)” value is, setting by setting: (48 h) 16.91 ±1.91%; (72 h) 20.43 ± 2.66%.
